Key:
[1] = test system: Echinochloa oryzoides (Ard.) Fritsch.; test: Preemergence weed control under flooded paddy conditions, ECHORC (Watergrass (Calif.)); type: in vivo; details: flooded paddy; as to herbicidal effect rating, ECHORC: meaning of each grade not given here
[2] = test system: Cyperus serotinus, Rottb.; test: Preemergence weed control under flooded paddy conditions, CYPSE (Flatsedge); type: in vivo; as to herbicidal effect rating, CYPSE: meaning of each grade not given here
Cyperus iria = test: Preemergence weed control under flooded paddy conditions, CYPIR (Rice Flatsedge); type: in vivo; details: flooded paddy; as to herbicidal effect rating, CYPIR: meaning of each grade not given here
[3] = test system: Oryza sativa, (L.) Tebonnet; test: Rice tolerance to post-transplant applications under flooded paddy conditions (Example 187), ORYSAT (Rice, Tebonnet); as to herbicidal effect rating ORYSAT: meaning of each grade not given here
Sagittaria pygmaea, L. = test: Preemergence weed control under flooded paddy conditions, SAGPY (Arrowhead (Pygmaea)); type: in vivo; details: flooded paddy; as to herbicidal effect rating, SAGPY: meaning of each grade not given here
[4] = test system: Monochoria vaginalis, Presl.; test: Preemergence weed control under flooded paddy conditions, MOOVA (Monochoria); type: in vivo; details: flooded paddy; as to herbicidal effect rating, MOOVA: meaning of each grade not given here
[5] = Rate 0.0320 kg/ha, preemergence, rated three to four weeks after treatment
[6] = Rate 0.0620 kg/ha, preemergence, rated three to four weeks after treatment
[7] = Rate 0.1250 kg/ha, preemergence, rated three to four weeks after treatment
[8] = Rate 0.2500 kg/ha, preemergence, rated three to four weeks after treatment
[9] = Rate 0.0320 kg/ha, rated three to four weeks after treatment
[10] = Rate 0.0620 kg/ha, rated three to four weeks after treatment
[11] = Rate 0.1250 kg/ha, rated three to four weeks after treatment
[12] = Rate 0.2500 kg/ha, rated three to four weeks after treatment
[13] = Rate 0.0320 kg/ha, preemergence weeds, rated three to four weeks after treatment
[14] = Rate 0.0620 kg/ha, preemergence weeds, rated three to four weeks after treatment
[15] = Rate 0.1250 kg/ha, preemergence weeds, rated three to four weeks after treatment
[16] = Rate 0.2500 kg/ha, preemergence weeds, rated three to four weeks after treatment
[17] = 0.0313 kg/ha, preemergence, rated three to four weeks after treatment
[18] = 0.0625 kg/ha, preemergence, rated three to four weeks after treatment
[19] = 0.1250 kg/ha, preemergence, rated three to four weeks after treatment
[20] = 0.2500 kg/ha, preemergence, rated three to four weeks after treatment
[21] = 0.1250 kg/ha, rated three to four weeks after treatment
[22] = 0.2500 kg/ha, rated three to four weeks after treatment
[23] = Rate 0.0320 kg/ha, preemergence, rated 3-4 weeks after treatment
[24] = Rate 0.0620 kg/ha, preemergence, rated 3-4 weeks after treatment
[25] = Rate 0.1250 kg/ha, preemergence, rated 3-4 weeks after treatment
[26] = Rate 0.2500 kg/ha, preemergence, rated 3-4 weeks after treatment
[27] = Rate 0.5000 kg/ha, preemergence, rated 3-4 weeks after treatment
[28] = 0.0320 kg/ha, preemergence, rated three to four weeks after treatment
[29] = 0.0620 kg/ha, preemergence, rated three to four weeks after treatment

CCCCCCCCCCCCS(=O)(=O)NC(=O)c1nsc2ccc(-n3c(=O)cc(C(F)(F)F)n(C)c3=O)cc12 [Example 358, 1,2-Benzisothiazole-3-carboxamide, 5-[3,6-dihydro-3-methyl-2,6-dioxo-4-(trifluoromethyl)-1(2H)-pyrimidinyl]-N-(dodecylsulfonyl)-]
4.0: herbicidal effect rating, ECHORC [1, 5]
6.0: herbicidal effect rating, SAGPY (Sagittaria pygmaea, L.; [7]) | herbicidal effect rating, SAGPY (Sagittaria pygmaea, L.; [8])
3.0: herbicidal effect rating ORYSAT [3, 10] | herbicidal effect rating ORYSAT [3, 11] | herbicidal effect rating ORYSAT [3, 12]
0.0: herbicidal effect rating, CYPSE [2, 5] | herbicidal effect rating, CYPSE [2, 6] | herbicidal effect rating, CYPSE [2, 7] | herbicidal effect rating, CYPSE [2, 8] | herbicidal effect rating, CYPIR (Cyperus iria; [5]) | herbicidal effect rating, CYPIR (Cyperus iria; [6]) | herbicidal effect rating, CYPIR (Cyperus iria; [7])
5.0: herbicidal effect rating, ECHORC [1, 6] | herbicidal effect rating, ECHORC [1, 7] | herbicidal effect rating, ECHORC [1, 8] | herbicidal effect rating, SAGPY (Sagittaria pygmaea, L.; [5]) | herbicidal effect rating, SAGPY (Sagittaria pygmaea, L.; [6])
7.0: herbicidal effect rating, CYPIR (Cyperus iria; [8])
2.0: herbicidal effect rating ORYSAT [3, 9]
9.0: herbicidal effect rating, MOOVA [4, 5] | herbicidal effect rating, MOOVA [4, 6] | herbicidal effect rating, MOOVA [4, 7] | herbicidal effect rating, MOOVA [4, 8]

Cn1c(C(F)(F)F)cc(=O)n(-c2ccc3snc(CN=C=S)c3c2)c1=O [Example 311, Isothiocyanic acid, {5-[3,6-dihydro-3-methyl-2,6-dioxo-4-(trifluoromethyl)-1(2H)-pyrimidinyl]-1,2-benzisothiazol-3-yl}methyl ester]
9.0: herbicidal effect rating, CYPIR (Cyperus iria; [14]) | herbicidal effect rating, CYPIR (Cyperus iria; [15]) | herbicidal effect rating, CYPIR (Cyperus iria; [16]) | herbicidal effect rating, MOOVA [4, 14] | herbicidal effect rating, MOOVA [4, 15] | herbicidal effect rating, MOOVA [4, 16]
0.0: herbicidal effect rating, ECHORC [1, 13] | herbicidal effect rating, ECHORC [1, 14] | herbicidal effect rating, ECHORC [1, 15] | herbicidal effect rating, ECHORC [1, 16] | herbicidal effect rating, CYPSE [2, 13] | herbicidal effect rating, CYPSE [2, 14] | herbicidal effect rating, CYPSE [2, 15] | herbicidal effect rating, CYPSE [2, 16] | herbicidal effect rating, CYPIR (Cyperus iria; [13]) | herbicidal effect rating ORYSAT [3, 9] | herbicidal effect rating ORYSAT [3, 10] | herbicidal effect rating, SAGPY (Sagittaria pygmaea, L.; [13]) | herbicidal effect rating, SAGPY (Sagittaria pygmaea, L.; [14]) | herbicidal effect rating, SAGPY (Sagittaria pygmaea, L.; [15]) | herbicidal effect rating, SAGPY (Sagittaria pygmaea, L.; [16]) | herbicidal effect rating, MOOVA [4, 13]
2.0: herbicidal effect rating ORYSAT [3, 11] | herbicidal effect rating ORYSAT [3, 12]

COC(=O)C(C)Oc1ccc(C)cc1-c1nsc2ccc(-n3c(=S)cc(C(F)(F)F)n(C)c3=O)cc12 (stereo not drawn) [Example 33, Methyl 2-{{2-{5-[3,6-dihydro-3-methyl-2-oxo-6-thioxo-4-(trifluoromethyl)-1(2H)-pyrimidinyl]-1,2-benzisothiazol-3-yl}-p-tolyl}oxy}propionate]
2.0: herbicidal effect rating, CYPIR (Cyperus iria; [19]) | herbicidal effect rating, ORYSAT (rice tolerance) ([3]; 0.0313 kg/ha, rated three to four weeks after treatment)
8.5: herbicidal effect rating, ECHORC [1, 18]
0.0: herbicidal effect rating, CYPSE [2, 17] | herbicidal effect rating, CYPSE [2, 18] | herbicidal effect rating, CYPSE [2, 19] | herbicidal effect rating, CYPSE [2, 20] | herbicidal effect rating, CYPIR (Cyperus iria; [17]) | herbicidal effect rating, CYPIR (Cyperus iria; [18]) | herbicidal effect rating, SAGPY (Sagittaria pygmaea, L.; [17]) | herbicidal effect rating, SAGPY (Sagittaria pygmaea, L.; [18]) | herbicidal effect rating, SAGPY (Sagittaria pygmaea, L.; [19]) | herbicidal effect rating, SAGPY (Sagittaria pygmaea, L.; [20])
3.5: herbicidal effect rating, ORYSAT (rice tolerance) [3, 22]
9.0: herbicidal effect rating, ECHORC [1, 19] | herbicidal effect rating, ECHORC [1, 20] | herbicidal effect rating, MOOVA [4, 17] | herbicidal effect rating, MOOVA [4, 18] | herbicidal effect rating, MOOVA [4, 19] | herbicidal effect rating, MOOVA [4, 20]
4.0: herbicidal effect rating, CYPIR (Cyperus iria; [20])
3.0: herbicidal effect rating, ORYSAT (rice tolerance) ([3]; 0.0625 kg/ha, rated three to four weeks after treatment) | herbicidal effect rating, ORYSAT (rice tolerance) [3, 21]
7.5: herbicidal effect rating, ECHORC [1, 17]

Cc1ccc(OCC(=O)c2ccc(OC(F)F)cc2)c(-c2nsc3ccc(-n4c(=O)cc(C(F)(F)F)n(C)c4=O)cc23)c1 [Example 543, 2,4(1H,3H)-Pyrimidinedione, 3-{3-{6-{[p-(difluoromethoxy)phenacyl]oxy}-m-tolyl}-1,2-benzisothiazol-5-yl}-1-methyl-6-(trifluoromethyl)-]
4.0: herbicidal effect rating, ECHORC [1, 25]
2.0: herbicidal effect rating, CYPIR (Cyperus iria; [23]) | herbicidal effect rating ORYSAT ([3]; Rate 0.2500 kg/ha, rated 3-4 weeks after treatment) | herbicidal effect rating ORYSAT ([3]; Rate 0.5000 kg/ha, rated 3-4 weeks after treatment)
1.0: herbicidal effect rating ORYSAT ([3]; Rate 0.1250 kg/ha, rated 3-4 weeks after treatment)
2.9: herbicidal effect rating, ECHORC [1, 24]
8.0: herbicidal effect rating, CYPIR (Cyperus iria; [26])
3.0: herbicidal effect rating, CYPIR (Cyperus iria; [27])
6.0: herbicidal effect rating, CYPIR (Cyperus iria; [24])
2.1: herbicidal effect rating, ECHORC [1, 23]
7.0: herbicidal effect rating, ECHORC [1, 26] | herbicidal effect rating, CYPIR (Cyperus iria; [25])
0.0: herbicidal effect rating, CYPSE [2, 23] | herbicidal effect rating, CYPSE [2, 24] | herbicidal effect rating, CYPSE [2, 25] | herbicidal effect rating, CYPSE [2, 26] | herbicidal effect rating, CYPSE [2, 27] | herbicidal effect rating ORYSAT ([3]; Rate 0.0320 kg/ha, rated 3-4 weeks after treatment) | herbicidal effect rating ORYSAT ([3]; Rate 0.0620 kg/ha, rated 3-4 weeks after treatment) | herbicidal effect rating, SAGPY (Sagittaria pygmaea, L.; [23]) | herbicidal effect rating, SAGPY (Sagittaria pygmaea, L.; [24]) | herbicidal effect rating, SAGPY (Sagittaria pygmaea, L.; [25]) | herbicidal effect rating, SAGPY (Sagittaria pygmaea, L.; [26]) | herbicidal effect rating, SAGPY (Sagittaria pygmaea, L.; [27])
9.0: herbicidal effect rating, ECHORC [1, 27] | herbicidal effect rating, MOOVA [4, 23] | herbicidal effect rating, MOOVA [4, 24] | herbicidal effect rating, MOOVA [4, 25] | herbicidal effect rating, MOOVA [4, 26] | herbicidal effect rating, MOOVA [4, 27]

Cn1c(C(F)(F)F)cc(=O)n(-c2ccc3snc(C(C)(C)C(=O)OCc4ccccn4)c3c2)c1=O [Example 510, 1,2-Benzisothiazole-3-acetic acid, 5-[3,6-dihydro-3-methyl-2,6-dioxo-4-(trifluoromethyl)-1(2H)-pyrimidinyl]-alpha,alpha-dimethyl-, 2-pyridylmethyl ester]
8.0: CYPIR herbicidal rating (Cyperus iria; [20]) | ORYSAT herbicidal rating (rice tolerance) [3, 22]
2.0: ORYSAT herbicidal rating (rice tolerance) ([3]; 0.0620 kg/ha, rated three to four weeks after treatment)
5.0: CYPSE herbicidal rating [2, 20] | SAGPY herbicidal rating (Sagittaria pygmaea, L.; [19])
9.0: ECHORC herbicidal rating [1, 28] | ECHORC herbicidal rating [1, 29] | ECHORC herbicidal rating [1, 19] | ECHORC herbicidal rating [1, 20] | MOOVA herbicidal rating [4, 19] | MOOVA herbicidal rating [4, 20]
0.0: CYPSE herbicidal rating [2, 28] | CYPSE herbicidal rating [2, 29] | CYPIR herbicidal rating (Cyperus iria; [28]) | ORYSAT herbicidal rating (rice tolerance) ([3]; 0.0320 kg/ha, rated three to four weeks after treatment)
6.0: SAGPY herbicidal rating (Sagittaria pygmaea, L.; [20]) | MOOVA herbicidal rating [4, 28]
4.0: ORYSAT herbicidal rating (rice tolerance) [3, 21] | SAGPY herbicidal rating (Sagittaria pygmaea, L.; [29])
7.0: CYPIR herbicidal rating (Cyperus iria; [19]) | MOOVA herbicidal rating [4, 29]
3.0: CYPSE herbicidal rating [2, 19] | CYPIR herbicidal rating (Cyperus iria; [29]) | SAGPY herbicidal rating (Sagittaria pygmaea, L.; [28])

Reference: patent EP0908457B1, “3-(1,2-benzisothiazol- and isoxazol-5-Y1)-2,4(1H,3H)-pyrimidinedione or thione and 3-(1,2-benzisothiazol- and isoxazol-5-y1)-4(3H)-pyrimidinone or thione herbicidal agents” (BASF AKTIENGESELLSCHAFT, priority 1997, dated 1999)
